System: mixed species biofilm
Experiment: Seahorse XFe Extracellular Flux Analyzer, Mitochondrial Respiration - Oxygen Consumption Rate (OCR) in mixed biofilm assay
Assay type: cell-based
Description: Samples with varying amounts of cannabidiol (CBD) are assessed for their effects on cellular metabolism with and without various source of zinc. Using the Seahorse XF^e Extracellular Flux Analyzer, biofilm samples are grown for 48 hrs. […] The biofilms are harvested for culture. Diluted biofilm and toothpaste slurry are loaded to each well. Glycolysis—Extracellular Acidification Rate (ECAR) and Mitochondrial Respiration—Oxygen Consumption Rate (OCR) is measured for 25-50 cycles (˜360 minutes). The “CBD Oil” is 5% CBD (by wt. of the CBD Oil) in Hemp seed oil.
Where the “OCR” is oxygen consumption rate units as measured using the Seahorse XF^e Extracellular Flux Analyzer: […]

SMILES	Average (OCR) (Table 3, separate experiment, stannous slurry, untreated 11489.9)	Average (OCR) (Table 1, CBD and zinc lactate, biofilm grown 48 hrs, untreated 25,669.50)
[F][Sn][F] [0.2% by wt. Stannous Fluoride, Stannous Fluoride]	10440.7	
CC(O)C(=O)[O-].CC(O)C(=O)[O-].[Zn+2] (centres unmarked) [1.5% Zinc Lactate, Zinc Lactate]		21,900.63

From patent publication US20240091110A1, “Oral Care Compositions and Methods of Use” (Colgate-Palmolive Company, priority 2019, published 2024)
